Values of other authors as cited in patent US20240000780A1, “PED5 INHIBITOR SEMI-SOLID COMPOSITIONS AND METHODS OF MAKING AND USING THEREOF” (Seattle Gummy Company, priority 2021, published 2024).

Settings: ranking among alpha, beta, gamma cyclodextrins

Row | SMILES | stability of complex formed with tadalafil
1 | OC[C@H]1O[C@@H]2O[C@H]3[C@H](O)[C@@H](O)[C@@H](O[C@H]4[C@H](O)[C@@H](O)[C@@H](O[C@H]5[C@H](O)[C@@H](O)[C@@H](O[C@H]6[C@H](O)[C@@H](O)[C@@H](O[C@H]7[C@H](O)[C@@H](O)[C@@H](O[C@H]8[C@H](O)[C@@H](O)[C@@H](O[C@H]9[C@H](O)[C@@H](O)[C@@H](O[C@H]1[C@H](O)[C@H]2O)O[C@@H]9CO)O[C@@H]8CO)O[C@@H]7CO)O[C@@H]6CO)O[C@@H]5CO)O[C@@H]4CO)O[C@@H]3CO [gamma, gamma-cyclodextrin] | most stable complex
2 | OC[C@H]1O[C@@H]2O[C@H]3[C@H](O)[C@@H](O)[C@@H](O[C@H]4[C@H](O)[C@@H](O)[C@@H](O[C@H]5[C@H](O)[C@@H](O)[C@@H](O[C@H]6[C@H](O)[C@@H](O)[C@@H](O[C@H]7[C@H](O)[C@@H](O)[C@@H](O[C@H]1[C@H](O)[C@H]2O)O[C@@H]7CO)O[C@@H]6CO)O[C@@H]5CO)O[C@@H]4CO)O[C@@H]3CO [alpha, alpha-cyclodextrin] | least stable
